Key:
MOLM-13 = experiment: Antiproliferative activity against FLT3-ITD-positive human MOLM13 cells assessed as reduction in cell growth after 72 hrs by MTT assay; assay type: functional, cell-based; details: MOLM-13, 72 h
MV4-11 = experiment: Antiproliferative activity against FLT3-ITD-positive human MV4-11 cells assessed as reduction in cell growth after 72 hrs by MTT assay; assay type: functional, cell-based; details: MV4-11, 72 h

SMILES	IC50 (MOLM-13) [µM]	IC50 (MV4-11) [µM]
CC(C)n1cc(-c2nc(Nc3ccc(N4CCN(C)CC4)c(F)c3)ncc2F)cn1	0.94	0.026
CCCn1cc(-c2nc(Nc3ccc(N4CCN(C)CC4)cc3F)ncc2F)cn1	9.7	8.1
CCCn1cc(-c2nc(Nc3ccc(N4CCN(CC)CC4)cc3F)ncc2F)cn1	> 10	4.2
CCCN1CCC(n2cc(-c3nc(Nc4ccc(N5CCN(C)CC5)c(F)c4)ncc3F)cn2)CC1	0.19	0.11
Cc1cnc(Nc2ccc(N3CCC(NCCO)CC3)c(F)c2)nc1-c1cnn(C(C)C)c1	0.55	0.2
Cc1cnc(Nc2ccc(N3CCC(CO)CC3)c(F)c2)nc1-c1cnn(C(C)C)c1	0.84	0.16
Cc1cnc(Nc2ccc(N3CCC(N(C)CCCCCO)CC3)c(F)c2)nc1-c1cnn(C(C)C)c1	> 10	> 1
CN1CCN(c2ccc(Nc3ncc(F)c(-c4cnn(C5CCCC5)c4)n3)cc2F)CC1		8.3
CC(C)n1cc(-c2nc(Nc3ccc(N4CCN(C)CC4)cc3F)ncc2F)cn1		7.8
CCN1CCN(c2ccc(Nc3ncc(C)c(-c4cnn(C(C)C)c4)n3)cc2F)CC1	4	1.1
CN(C)C1CCN(c2ccc(Nc3ncc(F)c(-c4cnn(C5CCCC5)c4)n3)cc2F)CC1		4.5

— ChEMBL document CHEMBL4321837, “Discovery of Potent and Orally Effective Dual Janus Kinase 2/FLT3 Inhibitors for the Treatment of Acute Myelogenous Leukemia and Myeloproliferative Neoplasms” (J Med Chem, 2019)
